Reference: patent US20060079439A1, “Elastin prevents occlusion of body vessels by vascular smooth muscle cells” (priority 2002, published 2006)
“Also recorded” adds a separate entry of the source. *1 amine or outer side, *2 acyl side, *3 side chain or, on linkers, in order; H or OH if unused. Where a SMILES comes first, the peptide text is derived from it. Bridges are numbered along the chain shown (N, C = ends). Roman numbers before positions name the chains, in order. [ ]: non-standard residue; d: D form. Actinocin(9to1) = Cc1c2oc3c(C)ccc(C(=O)[*:1])c3nc-2c(C(=O)[*:2])c(N)c1=O; NMeV = CN[C@H](C(=O)O)C(C)C; Sar = CNCC(=O)O

Assays:
[1] = test system: vascular smooth muscle cells; assay type: cell-based, mouse; conditions: for effect of inhibitor on elastin peptide induced cell migration / effect of inhibitor on migration in response to PDGF: 10 μM genistein, 100 ng/ml pertussis toxin; for effect of inhibitor on elastin peptide induced cell migration: 100 ng/ml β-protomer, 20 μM Y27632; for effect on migration of Eln −/− vsmcs towards elastin: pertussis toxin 100 ng/ml, preliminary experiments; for effect of inhibitor on migration in response to PDGF: 30 ng/ml PDGF
Procedure: Instead, we postulated that elastin signals vsmcs to migrate and adhere to the elastic lamellae. To test this hypothesis we used a modified Boyden chamber assay (Li et al., 1998; Raines et al., 1993). This assay system consists of two adjacent chambers separated by a semipermeable membrane. The amount of cells placed in one chamber (upper) that migrate to the other chamber (lower) is measured by counting the number of cells that have passed through to the undersurface of the filter.
Briefly, chemotaxis was measured using a modified Boyden chamber method. […] Prior to their addition to the upper chamber, vascular smooth muscle cells were incubated with either 20 μM EDTA (inhibitor of integrin receptors), 10 μM genistein (inhibitor of receptor tyrosine kinases), 100 ng/ml pertussis toxin, 100 ng/ml β-protomer, 20 μM Y27632, or the cells were left untreated. […] Cells were added to the upper chamber and incubated for three hours.

[2] = test system: Eln −/− vascular smooth muscle cells; conditions: for effect of pretreatment on tropoelastin- or elastin peptide-induced actin stress fiber formation: 100 μM actinomycin D, 10 μg/ml cyclohexamide, 100 ng/ml pertussis toxin or β protomer, 20 μM EDTA, 10 μM genistein; for effect on induction of contractile organization in Eln −/− vsmcs by elastin: pertussis toxin 100 ng/ml, preliminary experiments
[3] = test system: cAMP levels in Eln −/− vsmcs; assay type: cell-based, mouse
[4] = test system: −/− vascular smooth muscle cells; assay: F:G actin ratio, sedimentation assay; assay type: cell-based, mouse
RhoA = RhoA activation, Rhotekin bead pull-down and Western blot; assay type: cell-based, mouse; conditions: pretreatment with pertussis toxin
Source text: Briefly, cell lysates from treated or untreated −/− cells were immunoprecipitated using Rhotekin-coated beads which recognize GTP-bound RhoA. […] Rho-γGTP served as a positive control and Rho-GDP served as a negative control.

C[C@@H](N)[C@H]1CC[C@H](C(=O)Nc2ccncc2)CC1 [Y-27632]
effect of inhibitor on elastin peptide induced cell migration ([1]; 20 μM EDTA): does not block | effect of pretreatment on tropoelastin- or elastin peptide-induced actin stress fiber formation [2]: significantly decreased

C[C@@H]1C[C@@H]([C@H](O)CC2CC(=O)NC(=O)C2)C(=O)[C@@H](C)C1 [cyclohexamide]
effect of pretreatment on tropoelastin- or elastin peptide-induced actin stress fiber formation [2]: maintained

control peptide: control peptide (SEQ ID NO: 4) (VSLSPG; Control random fragment.) [reference compound]
forskolin induced cAMP levels ([3]; 10 μM forskolin pretreatment, 1 ug/ml tropoelastin, 10 μM elastin peptide or control peptide): not | increase in the F:G actin ratio ([4]; versus untreated cells): not | formation of organized actin stress fibers / actin myofilament polymerization ([2]; 3 hours, 1 ug/ml tropoelastin, 10 nM elastin peptide or 10 nM control peptide): did not produce this effect

O=C(O)CN(CCN(CC(=O)O)CC(=O)O)CC(=O)O [EDTA, ethylenediamine tetraacetic acid]
effect of inhibitor on migration in response to collagen ([1]; 10 μg/ml collagen type I, 20 μM EDTA): able to block | effect of inhibitor on elastin peptide induced cell migration ([1]; 20 μM EDTA): insensitive | effect on migration of Eln −/− vsmcs towards elastin [1]: insensitive | effect of pretreatment on tropoelastin- or elastin peptide-induced actin stress fiber formation [2]: not altered | effect on induction of contractile organization in Eln −/− vsmcs by elastin [2]: little or no inhibition

Cc1c2oc3c(C)ccc(C(=O)N[C@@H]4C(=O)N[C@H](C(C)C)C(=O)N5CCC[C@H]5C(=O)N(C)CC(=O)N(C)[C@@H](C(C)C)C(=O)O[C@@H]4C)c3nc-2c(C(=O)N[C@@H]2C(=O)N[C@H](C(C)C)C(=O)N3CCC[C@H]3C(=O)N(C)CC(=O)N(C)[C@@H](C(C)C)C(=O)O[C@@H]2C)c(N)c1=O [actinomycin D] (I: T[dV]P[Sar][NMeV] / II: T[dV]P[Sar][NMeV]; ester I:1-I:C, II:1-II:C; linker I:N-II:N via Actinocin(9to1))
effect of pretreatment on tropoelastin- or elastin peptide-induced actin stress fiber formation [2]: maintained

O=c1c(-c2ccc(O)cc2)coc2cc(O)cc(O)c12 [genistein]
effect of inhibitor on migration in response to PDGF [1]: able to block | effect of inhibitor on elastin peptide induced cell migration ([1]; 20 μM EDTA): insensitive | effect of pretreatment on tropoelastin- or elastin peptide-induced actin stress fiber formation [2]: not altered

pertussis toxin
effect of inhibitor on migration in response to PDGF [1]: no impact; also recorded: insensitive | effect of inhibitor on elastin peptide induced cell migration ([1]; 20 μM EDTA): blocked | effect on migration of Eln −/− vsmcs towards elastin [1]: sensitive | effect on the tropoelastin or elastin peptide effect on forskolin induced cAMP levels [3]: blocked | effect of pretreatment on the tropoelastin or elastin peptide effect on the F:G actin ratio ([4]; 100 ng/ml pretreatment): significantly decreased | RhoA activation by tropoelastin or elastin peptide after pretreatment (RhoA): unable to activate RhoA | effect of pretreatment on tropoelastin- or elastin peptide-induced actin stress fiber formation [2]: significantly decreased | effect on induction of contractile organization in Eln −/− vsmcs by elastin [2]: sensitive

cholera toxin [reference compound]
cAMP levels [3]: increased
